Source: patent publication EP0108285B1, “Antiviral purine derivatives” (THE WELLCOME FOUNDATION LIMITED, priority 1982, dated 1984)
Values after ≈ are worked out from the molar mass of the structure shown. Values belong to the molecule of their own block, whether it stands above or below them.

Tests used:
physchem = format: physicochemical; settings: water
Description: This improved water-solubility enables 6-deoxyacyclovir to be used in a greater variety of aqueous pharmaceutical formulations which require some solubilisation of the drug.

[1] = Urinary excretion of acyclovir after oral dosing of rats (radioimmunoassay); format: in vivo, Long Evans male rats; settings: rat, dose 25 mg/kg, urine samples, read-out: %Dose Excreted as Acyclovir
Method: The following experiments carried out to determine the urinary excretion and plasma levels of acyclovir after oral dosing of rats with acyclovir, 6-deoxyacyclovir and the 6-amino analogue thereof i.e. 2,6-diamino-9-(2-hydroxyethoxymethyl)-purine, hereinafter referred to as aminoacyclovir.
Long Evans male rats were dosed by intragastric needle with the drug and placed in metabolic cages which separated urine from faeces. The collected urine and plasma samples were analyzed for acyclovir content by a radioimmunoassay.

[2] = tested on: ICI strain of herpes simplex virus Type 1; assay: Antiviral activity in mice infected intracerebrally with herpes simplex virus; format: in vivo, CD1 mice; settings: for Survival Times (Days) / Mean Reciprocal Survival times: 100mg/kg/dose; for Survival Times (Days): 2-3 hours after infection and twice daily for 4 days, observed over 14 days, groups of 10 mice; for Mean Reciprocal Survival times: virus controls 0.407
Method: The mice were divided into groups of 10, one group acting as untreated virus controls and the other groups receiving respectively (A) acyclovir at 100mg/kg/dose (i) subcutaneously (s.c.) (ii) orally (iii) intraperitoneally (i.p.) (B) the compound of Example 1 (6-deoxyacyclovir) at 100mg/kg/dose i) subcutaneously (s.c.) ii) orally iii) intraperitoneally (i.p.). The treatment groups received dosages of the drug 2-3 hours after infection and twice daily for 4 days. Observations were made over 14 days survival times were recorded.

[3] = Toxicity study in beagle dogs, per os; format: in vivo; settings: 40mg/kg/day for 5 consecutive days, sacrificed at end of treatment or after a 2-week post-dose period
Method: Two male and 2 female beagle dogs were given 6-deoxyacyclovir per os ([…] daily for 5 consecutive days) at a dose level of 40mg/kg/day. There were no effects in 1 male and 1 female sacrificed at the end of the treatment period or in 1 male and 1 female sacrificed after a 2-week post-dose period.

xanthine oxidase = target: T1, xanthine oxidase (Bos taurus, UniProt P80457); assay: Oxidation by xanthine oxidase (enzyme studies); format: biochemical; settings: xanthine oxidase from bovine milk; compared with 2-aminopurine
T1 construct: xanthine oxidase from bovine milk; from tissue; host or cells: bovine milk
Description: The discovery that the 6-hydrogen purine above can be readily converted into its corresponding 6-hydroxy analogue is surprising since in previous studies with xanthine oxidase from bovine milk (H. Lettre et al (1967) Biochem. Pharmacol., 16, 1747-1755; T. A. Krenitsky et al (1972) Arch. Biophys., 150, 585-599), it was shown that 9-substitution obliterates or greatly diminishes the rate at which a variety of purines are oxidised.

T1 sequence (P80457 whole entry): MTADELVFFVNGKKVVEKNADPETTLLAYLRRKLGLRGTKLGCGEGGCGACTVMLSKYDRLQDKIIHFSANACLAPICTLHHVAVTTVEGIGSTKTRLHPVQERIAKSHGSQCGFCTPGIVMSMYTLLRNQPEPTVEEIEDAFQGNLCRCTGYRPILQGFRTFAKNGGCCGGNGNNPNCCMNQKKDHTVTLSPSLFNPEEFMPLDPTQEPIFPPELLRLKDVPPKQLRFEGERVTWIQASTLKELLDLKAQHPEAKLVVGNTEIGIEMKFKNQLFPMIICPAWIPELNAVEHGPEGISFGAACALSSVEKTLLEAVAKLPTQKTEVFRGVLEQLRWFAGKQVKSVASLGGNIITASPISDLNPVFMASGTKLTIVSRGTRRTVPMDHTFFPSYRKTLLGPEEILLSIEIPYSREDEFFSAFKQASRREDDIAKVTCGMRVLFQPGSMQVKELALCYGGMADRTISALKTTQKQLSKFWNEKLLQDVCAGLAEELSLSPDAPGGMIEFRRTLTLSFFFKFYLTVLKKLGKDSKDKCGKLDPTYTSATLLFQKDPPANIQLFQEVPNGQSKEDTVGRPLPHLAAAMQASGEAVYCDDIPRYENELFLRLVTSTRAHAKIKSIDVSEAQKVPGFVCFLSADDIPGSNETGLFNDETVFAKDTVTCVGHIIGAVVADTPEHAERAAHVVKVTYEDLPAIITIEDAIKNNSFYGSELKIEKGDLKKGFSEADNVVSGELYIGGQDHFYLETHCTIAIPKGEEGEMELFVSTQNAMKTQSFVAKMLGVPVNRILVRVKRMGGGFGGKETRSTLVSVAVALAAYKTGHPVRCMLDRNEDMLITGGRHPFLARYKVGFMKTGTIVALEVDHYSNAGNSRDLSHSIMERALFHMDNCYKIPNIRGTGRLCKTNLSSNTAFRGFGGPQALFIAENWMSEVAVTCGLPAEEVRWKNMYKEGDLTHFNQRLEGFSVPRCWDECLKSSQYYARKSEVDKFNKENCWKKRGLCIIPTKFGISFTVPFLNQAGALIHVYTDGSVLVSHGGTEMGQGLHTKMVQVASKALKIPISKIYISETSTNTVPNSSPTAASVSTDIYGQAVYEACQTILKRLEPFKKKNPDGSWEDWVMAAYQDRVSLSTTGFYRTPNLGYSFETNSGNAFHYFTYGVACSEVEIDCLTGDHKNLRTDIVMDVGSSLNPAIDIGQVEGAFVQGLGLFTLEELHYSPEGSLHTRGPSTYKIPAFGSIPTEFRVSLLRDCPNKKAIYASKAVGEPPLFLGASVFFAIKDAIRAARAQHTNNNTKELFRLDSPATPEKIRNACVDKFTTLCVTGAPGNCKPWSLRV

solubility (physchem): 1.23 mg/mL (≈ 5.46 mM) | dose excreted at 48 h [1]: 19.2%
SMILES: Nc1nc2c(ncn2COCCO)c(=O)[nH]1 [Acyclovir, 9-(2-hydroxyethoxymethyl)guanine, reference compound]
Survival Times (Days) ([2]; i.p.): 2+2 2+4 2+5 2+7 1 survivor | Mean Reciprocal Survival times ([2]; i.p.): 0.242 | Mean Reciprocal Survival times ([2]; oral): 0.325 | Mean Reciprocal Survival times ([2]; s.c.): 0.261

SMILES: Nc1ncc2ncn(COCCO)c2n1 [6-Deoxyacyclovir, 2-Amino-9-(2-hydroxyethoxymethyl)-9H-purine]
effects (toxicity) [3]: no effects | solubility (physchem): 50 mg/mL (≈ 239 mM) | rate of oxidation by the enzyme (xanthine oxidase): faster rate than the 9- unsubstituted purine | antiviral action compared with acyclovir ([2]; administered orally): more effective action than acyclovir | Mean Reciprocal Survival times ([2]; i.p.): 0.233 | Survival Times (Days) ([2]; oral): 1+2 1+4 2+5 3+6 1+8 1 survivor | Mean Reciprocal Survival times ([2]; oral): 0.186 | Mean Reciprocal Survival times ([2]; s.c.): 0.289
